The values that follow come from ChEMBL document CHEMBL1157091, “An unprecedented biogenetic-type chemical synthesis of 1(15-->11) abeotaxanes from normal taxanes” (J Nat Prod, 2010).

Assay [1] can be described thus: Cytotoxicity against human […] cells. Type of assay: cell-based.
Assay [2] concerns MCF7. Kind of assay: Cytotoxicity against human MCF7 cells. The format is functional, cell-based.
The test system of assay [3] is MDA-MB-231. In words: Cytotoxicity against human MDA-MB-231 cells. The format is functional, cell-based.

Usually IC50 stands for the concentration at which inhibition is half-maximal. A higher IC50 goes with a need for much substance. On to `CC(=O)O[C@H]1C(=O)[C@@]2(C)[C@H]([C@H](OC(=O)c3ccccc3)[C@]3(O)C[C@H](OC(=O)[C@H](O)[C@@H](NC(=O)c4ccccc4)c4ccccc4)C(C)=C1C3(C)C)[C@]1(OC(C)=O)CO[C@@H]1C[C@@H]2O` [PACLITAXEL], for which the IC50 in assay [1] was 27 µM.
Turning to `C=C1[C@H]2C[C@@H]3C[C@H](OC(C)=O)C(C)=C([C@@H](OC(C)=O)[C@H](OC(C)=O)[C@]2(C)[C@@H](OC(C)=O)C[C@@H]1O)C3(C)C`, the 50% inhibitory concentration (IC50) in assay [2], in assay [3] and in assay [1] was > 50 µM in each case.
